# Tests used:
# [1] = (IV) administration at 3.0 grams/m^2; cited from earlier work
# [2] = oral administration; cited from earlier work
# [3] = tested on: murine B cell lymphoma cell line (A20;ATCC#TIB-208); assay: Tritiated thymidine incorporation (growth rate) of cultured lymphoma cells; assay type: cell-based; settings: for Mean, cpm (tritiated thymidine count, growth rate): 12 hours, triplicates
# Procedure: The effect of methylglyoxal concentration on the growth rate of cultured lymphoma cells is shown below. The cells used were murine B cell lymphoma cell line (A20;ATCC#TIB-208). Cells labeled A20 were untreated cells that were passed through their regular media. A20 Methylglyoxal Reversed cells had undergone 3 passages in media containing 1 mM methylglyoxal followed by 3 passages in regular media before use. A20 Methylglyoxal P6 cells had 6 passages in media containing 1 mM methylglyoxal before use. At the start of the experiment harvested cells were incubated with DNA precursor tritiated thymidine in media containing the various concentrations of methylglyoxal for 12 hours, then harvested and counted in a scintillation counter. The count data in cpm reflect the growth rate of the cells in the presence of the various methylglyoxal concentrations. Relevant data from this in vitro study are presented here.
# [4] = mice, single oral dose of 200 mg; cited from earlier work
# cancer cells = settings: cited from earlier work
compound,measurement,setting,value
"CCCCS(=N)(=O)CCC(N)C(=O)O (stereo not drawn) [buthioinine sulfoximine, buthionine sulfoximine]",Deleterious effects,[1],no deleterious effects
"CC(=O)C=O [Methylglyoxal, methylglyoxal]",Oral uptake,[2],less than 5%
same,Survival of lymphoma cells on passage in methylglyoxal,"[3]; 1 mM methylglyoxal in media, 3 or 6 passages",able to survive
same,Effect on growth rate,"[3]; 1.2 mM methylglyoxal, all three A20 cell groups",severely slowed their growth rate
same,Growth rate relative to the controls,"[3]; 2.5 mM and 5.0 mM methylglyoxal, all three A20 cell groups",less than 0.1 % of the controls
same,"Mean, cpm (tritiated thymidine count, growth rate)","[3]; A20 1 mM Methylglyoxal P6 cells, 0.3 mM methylglyoxal","36,001 cpm"
same,"Mean, cpm (tritiated thymidine count, growth rate)","[3]; A20 1 mM Methylglyoxal P6 cells, 0.6 mM methylglyoxal","35,157 cpm"
same,"Mean, cpm (tritiated thymidine count, growth rate)","[3]; A20 1 mM Methylglyoxal P6 cells, 1.2 mM methylglyoxal","1,470 cpm"
same,"Mean, cpm (tritiated thymidine count, growth rate)","[3]; A20 1 mM Methylglyoxal P6 cells, 2.5 mM methylglyoxal",24 cpm
same,"Mean, cpm (tritiated thymidine count, growth rate)","[3]; A20 1 mM Methylglyoxal P6 cells, 5.0 mM methylglyoxal",9 cpm
same,"Mean, cpm (tritiated thymidine count, growth rate)","[3]; A20 1 mM Methylglyoxal Reversed P3 cells, 0.3 mM methylglyoxal","34,220 cpm"
same,"Mean, cpm (tritiated thymidine count, growth rate)","[3]; A20 1 mM Methylglyoxal Reversed P3 cells, 0.6 mM methylglyoxal","33,927 cpm"
same,"Mean, cpm (tritiated thymidine count, growth rate)","[3]; A20 1 mM Methylglyoxal Reversed P3 cells, 1.2 mM methylglyoxal",587 cpm
same,"Mean, cpm (tritiated thymidine count, growth rate)","[3]; A20 1 mM Methylglyoxal Reversed P3 cells, 2.5 mM methylglyoxal",7 cpm
same,"Mean, cpm (tritiated thymidine count, growth rate)","[3]; A20 1 mM Methylglyoxal Reversed P3 cells, 5.0 mM methylglyoxal",12 cpm
same,Development of resistance to methylglyoxal,"[3]; A20 Methylglyoxal Reversal and A20 Methylglyoxal P6 cells, passaged in 1 mM methylglyoxal",no evidence
same,"Mean, cpm (tritiated thymidine count, growth rate)","[3]; A20 untreated cells, 0.3 mM methylglyoxal","36,289 cpm"
same,"Mean, cpm (tritiated thymidine count, growth rate)","[3]; A20 untreated cells, 0.6 mM methylglyoxal","30,119 cpm"
same,"Mean, cpm (tritiated thymidine count, growth rate)","[3]; A20 untreated cells, 1.2 mM methylglyoxal",275 cpm
same,"Mean, cpm (tritiated thymidine count, growth rate)","[3]; A20 untreated cells, 2.5 mM methylglyoxal",6 cpm
same,"Mean, cpm (tritiated thymidine count, growth rate)","[3]; A20 untreated cells, 5.0 mM methylglyoxal",8 cpm
same,Time of peak blood concentration,[4],4 h
same,"Levels causing protein synthesis inhibition, arrested cell growth and induced apoptosis","cancer cells; cancer cells, normal cells were not affected",1 to 3 mM
same,Concentration required to achieve 95-100% cell death,cancer cells; cultured cancer cells or mice inoculated intraperitoneally with cancer cells,~3 mM
